BindingDB's records for patent US9777020 (AbbVie Inc, 2017)

Biological target: High affinity nerve growth factor receptor (Homo sapiens, UniProt P04629)
Sequence (P04629 whole entry): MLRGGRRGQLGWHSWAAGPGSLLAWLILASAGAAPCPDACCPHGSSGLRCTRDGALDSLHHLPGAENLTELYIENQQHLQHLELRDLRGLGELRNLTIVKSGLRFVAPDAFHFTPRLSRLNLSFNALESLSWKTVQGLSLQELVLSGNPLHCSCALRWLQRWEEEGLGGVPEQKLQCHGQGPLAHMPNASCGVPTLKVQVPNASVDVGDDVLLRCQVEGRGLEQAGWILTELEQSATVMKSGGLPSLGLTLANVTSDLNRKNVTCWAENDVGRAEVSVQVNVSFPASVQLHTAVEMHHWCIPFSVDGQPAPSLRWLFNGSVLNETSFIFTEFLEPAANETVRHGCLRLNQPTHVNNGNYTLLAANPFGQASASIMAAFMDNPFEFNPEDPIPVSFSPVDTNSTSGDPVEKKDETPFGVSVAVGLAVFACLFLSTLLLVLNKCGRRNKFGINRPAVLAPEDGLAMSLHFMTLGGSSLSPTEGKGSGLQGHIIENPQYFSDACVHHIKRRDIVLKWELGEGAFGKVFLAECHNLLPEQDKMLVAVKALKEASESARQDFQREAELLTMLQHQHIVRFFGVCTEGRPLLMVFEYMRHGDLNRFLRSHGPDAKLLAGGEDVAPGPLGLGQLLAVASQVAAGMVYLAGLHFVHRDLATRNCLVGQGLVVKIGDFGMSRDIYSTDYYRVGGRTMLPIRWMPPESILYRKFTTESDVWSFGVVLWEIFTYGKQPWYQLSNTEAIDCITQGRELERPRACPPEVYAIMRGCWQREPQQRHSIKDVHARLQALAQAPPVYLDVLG

IC50 | Compound
69.3 nM | Cc1nc2ccc(NC(=O)c3coc4c3C(=O)NCC4)cc2s1 [US9777020, Example 15]
28.6 nM | CCOc1nc(N2CCOCC2)ccc1NC(=O)c1coc2c1C(=O)NCC2 [US9777020, Example 106]
